This note sets out measurements from US7820637B2, “Use of 5′-methylthioadenosine (MTA) in the prevention and/or treatment of autoimmune diseases and/or transplant rejection” (Proyecto de Biomedicina Cima, S.L., priority 2005, dated 2010).

Assay [1] concerns acute EAE in Lewis rats immunised with MBP. Put plainly: Acute EAE induction and clinical score in Lewis rats immunised with MBP. The format is in vivo, rat.
The test system of assay [2] is chronic-recurrent EAE (CR-EAE) in Dark Agouti (DA) rats immunised with MOG. Put plainly: Chronic-recurrent EAE (CR-EAE) clinical score and survival in DA rats immunised with rMOG. The format is in vivo, rat.
Assay [3] concerns splenocytes (MBP-specific T-lymphocyte response). Put plainly: Lymphocyte proliferation assay (MBP-induced, splenocytes of treated rats). In kind it is cell-based, rat. Particulars: splenocytes of Lewis rats immunised with MBP, day 16 after immunisation, treated in vivo with MTA; MBP 10 μg/ml. As to the method:
The splenocytes were purified by means of Ficoll Hypaque density centrifugation starting from the rats with EAE and non-immunised rats. The lymphocite proliferation assay was conducted in the same manner as previously described [Villoslada, P., et al., J. Exp Med, 2000. 191 (10):1799-806].
Briefly, the splenocytes were placed in culture at a concentration of 2×10^6/ml in RPMI 1640 medium supplemented with 10% fetal bovine serum and penicillin/streptomycin, in the presence or absence of phytohemagglutinin (PHA, 5 μg/ml), MBP (10 μg/ml), MTA (100 μM) and DMSO. The cultures were incubated for 5 days in 96-well round-base plates (0.2 ml/well) at 37° C. The wells were struck with 0.5 μCi [^3H]TdR for 18 hours. The reading was performed using a liquid scintillation counter. The results were expressed as the mean stimulation index of the triplicate determinations.
In order to determine whether treatment with MTA modified the peripheral immune system's response to the antigen used in the immunisation, the MBP-induced proliferation responses were measured in splenocytes of animals treated with MTA and placebo (in Lewis rats). […] Therefore, it is observed that MTA inhibits the MBP-specific lymphocyte activation, which points to its immunomodulatory effect.

Assay [4] has as its system IL-2, IFN-γ, TNF-α, IL-10 and iNOS mRNA. The assay is described as follows: Quantitative real-time PCR of cytokine and pro-inflammatory mediator mRNA in splenocytes. The format is in vivo, rat. Particulars: splenocytes of Lewis rats treated with MTA; relative to 18S rRNA (FIG. 5). Here is the method: Spleen, liver and blood samples were also obtained from each animal. The spleens and the livers were quickly frozen in liquid nitrogen and kept in fragments at −80° C. in order to be able to conduct the studies with RT-PCR (reverse transcription and polymerase chain reaction). The blood was centrifuged at 800 rpm for 10 minutes in order to obtain the serum, which was kept at −80° C.
The spleen and liver tissue segments were homogenised in RNA lysis buffer with 2% β-mercaptoethanol using a manual homogeniser. The total RNA was extracted using the Rneasy Mini Kit (Quiagen), following the manufacturer's instructions. During RNA purification, the DNA was eliminated by treatment with DNase. The RNA concentration and purity was determined by measuring the absorbance at 260 nm and 280 nm with a spectrophotometer (Eppendorf). Reverse transcription of the total RNA was performed using the High Capacity cDNA Archive Kit (Applied Biosystems). […]
For the quantitative PCR, the TaqMan Universal Master Mix (Applied Biosystems) was used. […]
The IL-2, IFN-γ, TNF-α, IL-10 and iNOS mRNA expression levels were quantified in relation to the rRNA 18S constitutive gene.
It was assessed whether MTA had the capacity to modify the expression of cytokines and other pro-inflammatory mediators. The IL-2, IFN-γ, TNF-α, IL-10 and iNOS gene expression was analysed by means of quantitative real-time PCR (RT-PCR). […]
For orientation: Real-time PCR tracks product formation cycle by cycle.

Assay [5] deals with inflammatory infiltrates in brain and spinal cord of Lewis rats immunised with MBP. The assay is described as follows: Histopathology and immunohistochemistry of brain and spinal cord. The format is in vivo, rat. As to the method:
The two Lewis rat groups were anaesthetised and injected by intracardiac route with 4% paraformaldehyde in 0.1 M phosphate buffer (pH 7.6) on day 16 of the disease. The brains and the cervical, thoracic and lumbar spinal cord segments were extracted and fixated for the entire night at 4° C. After fixation, the tissues were soaked in paraffin for histopathology and immunohistochemistry.
Histological evaluation of the brain and spinal cord sections included in paraffin was conducted. The sections were stained with hematoxylin-eosin (HE) and Luxol fast-blue in order to be able to assess the tissues' inflammation and demyelination. 24-30 sagital sections were examined for each rat. The blind semi-quantitative histological evaluation of inflammation and demyelination was conducted as previously described [Villoslada, P., et al., J. Exp Med, 2000. 191 (10):1799-806].
The immunohistochemical procedures were conducted on […] brain and medulla sections included in paraffin. The endogenous peroxidase activity was deactivated by means of 0.3% H2O2 in methanol for 20 min.
The sections were incubated for 30 min in PBS with 0.5% Tween® 20 and 10% goat or horse serum (Vector Laboratorios) and for 2 hours in PBS with 0.5% Tween® 20 and the primary antibodies in the following dilutions: rabbit antiglial fibrillary acid polyclonal anti-protein antibody (GFAP), 1:1,000 (Dakocytomation); mouse beta-amyloid precursor anti-protein antibody (APP), 1:100 (Zymed Laboratorios); mouse […] (OX-6), 1:200 (Serotec); rat anti-CD8 antibody, 1:250 (Serotec); type II anti-iNOS antibody, 1:250 (Serotec); rat anti-CD68 antibody (ED1), 1:200 (Serotec) and rat anti-CD43 antibody (W3/13), 1:50 (Serotec). Subsequently, the sections were washed with PBS and incubated for 45 min at room temperature with the appropriate biotinylated secondary IgG antibody (1:100 in PBS; Vector Laboratorios), followed by several washes in PBS/Tween® and a 45-min incubation at room temperature with the avidin-biotin peroxidase complex (ABC, Vector Laboratorios).
The immunoreaction specificity was determined by incubating the sections without the primary antibody. The images were obtained using an optic microscope.
The neuropathological evaluation confirmed the observed clinical protection. […] Inflammatory lesions were found in both the white and grey matter of the cervical, thoracic and lumbar spinal cord, and the brain. […] There were significant differences between the placebo animals and those treated with MTA in terms of both the severity and the central nervous system (CNS) regions affected. Treatment with MTA inhibits the development of inflammatory EAE in Lewis rats immunised with MBP.

The mark [6] stands for this setting: MTA 4.3 mg/animal i.p. daily from immunisation.
[7] abbreviates: 100 μM MTA i.p. daily from day 15 after immunisation.
Where [8] appears, read: immunohistochemical staining, MTA versus placebo group.

On to `CSCC1OC(n2cnc3c(N)ncnc32)C(O)C1O` (stereo not drawn) [MTA, 5′-methylthioadenosine], for which, in assay [1] (setting [6]), the “EAE Incidence (%)” value is “(28.57%)” and the “EAE Incidence (rats with EAE / number of rats)” value is recorded as 4/14. Also, the “Cumulative EAE Score” value in assay [1] (MTA i.p. daily from immunisation) was 2 ± 0.07. Moreover, the “Onset of EAE” value in assay [1] (MTA i.p. daily from immunisation, treated animals that developed symptoms) turned out to be 15 ± 1.2 days. Moreover, in assay [2] (setting [7]), the “Cumulative EAE Score” value amounted to 23 ± 20, the “Incidence 2nd outbreak” value was 10/10 and the “Onset (days) 2nd outbreak” value turned out to be 26 ± 6 days. In addition, the “Max. EAE Score” value in assay [2] (100 μM MTA i.p. daily from day 15 after immunisation, scale 0-5) was found to be 1.8 ± 1.5. Also, the “survival rate versus placebo group” value in assay [2] (survival curves to score 3.5 and to exitus (FIG. 3)) is recorded as “significantly higher”. In assay [3], the “stimulation index (MBP-specific proliferation response)” value was determined as 1.18±0.4. Moreover, the “mRNA expression of cytokines (IL-2, IFN-γ, TNF-α, IL-10, iNOS) versus placebo group” value in assay [4] is “lower”. For the same compound, in assay [5] (setting [8]), the “number of positive ED1 and W3/13 cells in inflammatory infiltrates” value is listed as “higher in the placebo group”; the “proportions of positive OX-6 cells in inflammatory infiltrates” value was “same proportions”. Moreover, the “stains for APP and iNOS” value in assay [5] (immunohistochemical staining, both groups) was “very low detection levels”. In assay [5] (spinal cord and brain, Lewis rats immunised with MBP (FIG. 6)), the “number and size of the inflammatory infiltrates versus placebo” value is given as “lower”.
